Assay results published in patent US20250282754A1, “BICYCLIC COMPOUNDS AND THEIR USE AS PEST CONTROL AGENTS” (Pl Industries Ltd., priority 2022, published 2025).

These compounds were tested on Bemisia tabaci (assay: Bemisia tabaci leaf dip test (brinjal leaves, whitefly adults)). Settings: foliar, dead and moribund whitefly adults 72 h after release, compared to untreated controls, read-out: percent mortality.
Type: in vivo
Procedure: The leaf dip method was used for testing, wherein the required quantity of the compound was weighed and dissolved in a tube containing a solvent solution. The tube was put on a vortex at 2000 rpm for proper mixing and then diluted with a 0.01% Triton-X solution to the desired test concentration. Brinjal leaves were dipped in the compound solution for 10 seconds; shade dried for 20 min and then placed, with the abaxial side of the leaf up, on 4 ml of a solidified 1% agar-agar solution in respective container caps. Known numbers of freshly emerged whitefly adults were collected, using a modified aspirator, and released into a perforated container in which the cap containing the treated leaf was placed. The containers were kept in a plant growth chamber at a temperature of 25° C. and relative humidity of 70%. Observations on dead, moribund and alive adults were recorded 72 h after the release. Percent mortality was calculated by combining dead and moribund adults and comparing the result to the one of the untreated controls. The compounds 1 9 11 18 25 28 29 30 31

| Structure (SMILES) | mortality at 300 ppm [%] |
| --- | --- |
| COc1nn(-c2ccc3nn(-c4cncc(F)c4)cc3c2)c(=O)n1Cc1ccccc1F [Compound 355, 4-(2-fluorobenzyl)-2-(2-(5-fluoropyridin-3-yl)-2H-indazol-5-yl)-5-methoxy-2,4-dihydro-3H-1,2,4-triazol-3-one] | ≥ 70 |
| CS(C)(=O)=Nc1cccc2nn(-c3cccnc3)cc12 [Compound 72] | ≥ 70 |
| CCCCS(=N)(=O)c1ccc2nn(-c3cccnc3)cc2c1 (stereo not shown) [Compound 385, butyl(imino)(2-(pyridin-3-yl)-2H-indazol-5-yl)-λ^6-sulfanone] | ≥ 70 |
| Cc1ccc(S(=O)(=Nc2ccc3nn(-c4cccnc4)cc3c2)N(C)C)cc1 (stereo not shown) [Compound 93, N,N,4-trimethyl-N′-(2-(pyridin-3-yl)-2H-indazol-5-yl)benzenesulfonimidamide] | ≥ 70 |

What follows are compounds tested on Nilaparvata lugens (assay: Nilaparvata lugens seedling dip test (paddy seedlings, third instar nymphs)). Settings: dead and moribund third instar nymphs 72 h after release, compared to untreated controls, read-out: percent mortality.
Type: in vivo
Procedure: The seedling dip method was used for testing, wherein the required quantity of the compound was weighed and dissolved in a tube containing a solvent solution. The tube was put on a vortex at 2000 rpm for proper mixing and then diluted with a 0.01% Triton-X solution to the desired test concentration. Paddy seedlings were dipped in the compound solution for 10 seconds, shade dried for 20 min and then the seedlings were placed in glass test tubes with the roots kept in water. 15 third instar nymphs of Nilaparvata lugens were released into each test tube and the tubes were kept in a plant growth chamber at a temperature of 25° C. and relative humidity of 75%. Observations on dead, moribund and alive nymphs were recorded 72 h after the release. Percent mortality was calculated by combining dead and moribund nymphs and comparing the result to the one of the untreated controls. The compounds

| Structure (SMILES) | mortality at 300 ppm [%] |
| --- | --- |
| COc1nn(-c2ccc3nn(-c4cncc(F)c4)cc3c2)c(=O)n1Cc1ccccc1F [Compound 355, 4-(2-fluorobenzyl)-2-(2-(5-fluoropyridin-3-yl)-2H-indazol-5-yl)-5-methoxy-2,4-dihydro-3H-1,2,4-triazol-3-one] | ≥ 70 |
| CS(C)(=O)=Nc1cccc2nn(-c3cccnc3)cc12 [Compound 72] | ≥ 70 |
| CCCCS(=N)(=O)c1ccc2nn(-c3cccnc3)cc2c1 (stereo not shown) [Compound 385, butyl(imino)(2-(pyridin-3-yl)-2H-indazol-5-yl)-λ^6-sulfanone] | ≥ 70 |
| COc1nn(-c2ccc3nn(-c4cccnc4C)cc3c2)c(=O)n1C [Compound 113, 5-methoxy-4-methyl-2-(2-(2-methylpyridin-3-yl)-2H-indazol-5-yl)-2,4-dihydro-3H-1,2,4-triazol-3-one] | ≥ 70 |
| Cc1ccc(S(=O)(=Nc2ccc3nn(-c4cccnc4)cc3c2)N(C)C)cc1 (stereo not shown) [Compound 93, N,N,4-trimethyl-N′-(2-(pyridin-3-yl)-2H-indazol-5-yl)benzenesulfonimidamide] | ≥ 70 |
| CCCCCS(C)(=O)=Nc1ccc2nn(-c3cncc(F)c3)cc2c1 (stereo not shown) [Compound 42] | ≥ 70 |
| CC(C)S(=O)(=NC#N)c1ccc2nn(-c3cccnc3)cc2c1 (stereo not shown) [Compound 392, N-(isopropyl(oxo)(2-(pyridin-3-yl)-2H-indazol-5-yl)-λ^6-sulfaneylidene)cyanamide] | ≥ 70 |
| COc1nn(-c2ccc3nn(-c4cccnc4)cc3c2)c(=O)n1C1CC1 [Compound 127, 4-cyclopropyl-5-methoxy-2-(2-(pyridin-3-yl)-2H-indazol-5-yl)-2,4-dihydro-3H-1,2,4-triazol-3-one] | ≥ 70 |
| COc1nn(-c2cccc3nn(-c4cncnc4)cc23)c(=O)n1Cc1ccccc1F [Compound 357, 4-(2-fluorobenzyl)-5-methoxy-2-(2-(pyrimidin-5-yl)-2H-indazol-4-yl)-2,4-dihydro-3H-1,2,4-triazol-3-one] | ≥ 70 |
| CS(=O)(Cc1ccccc1)=Nc1ccc2nn(-c3cncc(F)c3)cc2c1 (stereo not shown) [Compound 13] | ≥ 70 |
| CCOc1nn(-c2cccc3nn(-c4cccnc4)cc23)c(=O)n1Cc1ccccc1F [Compound 359, 5-ethoxy-4-(2-fluorobenzyl)-2-(2-(pyridin-3-yl)-2H-indazol-4-yl)-2,4-dihydro-3H-1,2,4-triazol-3-one] | ≥ 70 |
| CS(=O)(=Nc1cnc2nn(-c3cccnc3)cc2c1)c1cccnc1Cl (stereo not shown) [Compound 153] | ≥ 70 |
| COc1nn(-c2ccc3nn(-c4ccc(C)nc4)cc3c2)c(=O)n1C [Compound 115, 5-methoxy-4-methyl-2-(2-(6-methylpyridin-3-yl)-2H-indazol-5-yl)-2,4-dihydro-3H-1,2,4-triazol-3-one] | ≥ 70 |
| CC(C)CS(=O)(CC(C)C)=Nc1ccc2nn(-c3cncnc3)c(Cl)c2c1 [Compound 181] | ≥ 70 |
| CS(=O)(=Nc1ccc2nn(-c3cccnc3)cc2c1)c1ccc(Cl)cc1 (stereo not shown) [Compound 26] | ≥ 70 |
| CCOc1nn(-c2cccc3nn(-c4cccnc4)cc23)c(=O)n1Cc1ccc(OC(F)(F)F)cc1 [Compound 331, 5-ethoxy-2-(2-(pyridin-3-yl)-2H-indazol-4-yl)-4-(4-(trifluoromethoxy)benzyl)-2,4-dihydro-3H-1,2,4-triazol-3-one] | ≥ 70 |
| CC(=O)N=S(=O)(c1cnc2nn(-c3cncc(F)c3)cc2c1)C(C)C (stereo not shown) [Compound 402] | ≥ 70 |
| COc1nn(-c2ccc3nn(-c4cccnc4)cc3c2)c(=O)n1Cc1ccccc1Cl [Compound 367, 4-(2-chlorobenzyl)-5-methoxy-2-(2-(pyridin-3-yl)-2H-indazol-5-yl)-2,4-dihydro-3H-1,2,4-triazol-3-one] | ≥ 70 |
| CS(=O)(=Nc1ccc2nn(-c3cncc(F)c3)cc2c1)c1ccccc1 (stereo not shown) [Compound 14] | ≥ 70 |
| CS(=O)(Cc1ccccc1)=Nc1ccc2nn(-c3cncnc3)cc2c1 (stereo not shown) [Compound 16] | ≥ 70 |

| Structure (SMILES) | mortality at 300 ppm [%] |
| --- | --- |
| Cc1ccc(S(C)(=O)=Nc2ccc3nn(-c4cccnc4)cc3c2)cc1 (stereo not shown) [Compound 23] | ≥ 70 |
| CS(=O)(=Nc1ccc2nn(-c3cccnc3)cc2c1)c1ccccc1 (stereo not shown) [Compound 21] | ≥ 70 |
| CC(C)S(=O)(=NC(=O)C(F)(F)F)c1ccc2nn(-c3cccnc3)cc2c1 (stereo not shown) [Compound 394] | ≥ 70 |
| CC(C)(C)S(C)(=O)=Nc1ccc2nn(-c3cncnc3)cc2c1 (stereo not shown) [Compound 19] | ≥ 70 |
| COc1nn(-c2cccc3nn(-c4cccnc4)cc23)c(=O)n1Cc1ccccc1F [Compound 356, 4-(2-fluorobenzyl)-5-methoxy-2-(2-(pyridin-3-yl)-2H-indazol-4-yl)-2,4-dihydro-3H-1,2,4-triazol-3-one] | ≥ 70 |
| CC(C)S(=O)(=NC(=O)C(F)F)c1ccc2nn(-c3cccnc3)cc2c1 (stereo not shown) [Compound 396] | ≥ 70 |
| CCN=S(=O)(CC1CCC1)c1ccc2nn(-c3cncc(F)c3)cc2c1 (stereo not shown) [Compound 471, (cyclobutylmethyl)(ethylimino)(2-(5-fluoropyridin-3-yl)-2H-indazol-5-yl)-λ^6-sulfanone] | ≥ 70 |
| CCOc1nn(-c2cccc3nn(-c4cncnc4)cc23)c(=O)n1Cc1ccccc1F [Compound 360, 5-ethoxy-4-(2-fluorobenzyl)-2-(2-(pyrimidin-5-yl)-2H-indazol-4-yl)-2,4-dihydro-3H-1,2,4-triazol-3-one] | ≥ 70 |
| CS(=O)(=Nc1cnc2nn(-c3cccnc3)cc2c1)c1ncccc1F (stereo not shown) [Compound 152] | ≥ 70 |
| CCCCCS(C)(=O)=Nc1ccc2nn(-c3cccnc3)cc2c1 (stereo not shown) [Compound 27] | ≥ 70 |
| Cc1ccc(S(C)(=O)=Nc2ccc3nn(-c4cncc(F)c4)cc3c2)cc1 (stereo not shown) [Compound 51] | ≥ 70 |
| CS(C)(=O)=Nc1ccc2nn(-c3cncc(F)c3)cc2c1 [Compound 8] | ≥ 70 |
| CCS(C)(=O)=Nc1ccc2nn(-c3cncc(F)c3)cc2c1 (stereo not shown) [Compound 5] | ≥ 70 |
| CS(C)(=O)=Nc1ccc(Cl)c2nn(-c3cncc(F)c3)cc12 [Compound 202] | ≥ 70 |
| COc1nn(-c2ccc3nn(-c4cncc(C)c4)cc3c2)c(=O)n1C [Compound 111, 5-methoxy-4-methyl-2-(2-(5-methylpyridin-3-yl)-2H-indazol-5-yl)-2,4-dihydro-3H-1,2,4-triazol-3-one] | ≥ 70 |
| COc1nn(-c2ccc3nn(-c4cnccc4C)cc3c2)c(=O)n1C [Compound 114, 5-methoxy-4-methyl-2-(2-(4-methylpyridin-3-yl)-2H-indazol-5-yl)-2,4-dihydro-3H-1,2,4-triazol-3-one] | ≥ 70 |
| CCS(=O)(=Nc1ccnc(C)c1)c1ccc2nn(-c3cncc(F)c3)cc2c1 (stereo not shown) [Compound 464] | ≥ 70 |
| COc1nn(-c2ccc3nn(-c4cccnc4)c(Cl)c3c2)c(=O)n1C [Compound 347, 2-(3-chloro-2-(pyridin-3-yl)-2H-indazol-5-yl)-5-methoxy-4-methyl-2,4-dihydro-3H-1,2,4-triazol-3-one] | ≥ 70 |
| CC(C)S(C)(=O)=Nc1ccc(Cl)c2nn(-c3cncc(F)c3)cc12 (stereo not shown) [Compound 206] | ≥ 70 |
